Laboratory results published in patent US12570687B2, “Triterpenoid compounds, pharmaceutical compositions thereof, and their use for treating a nuclear receptor subfamily 4 group a member 1-mediated disease” (NUCMITO PHARMACEUTICALS COMPANY LIMITED, priority 2019, dated 2026).

Tests used:
Format in all cases: cell-based
HepG2 (liver cancer) = assay: MTT antiproliferative assay, HepG2; conditions: Homo sapiens, HepG2, 10 μM, 48 or 72 h, read-out: inhibition of cell growth, HepG2
In short: (§1)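 2,000-5,000 cells/well; cpd 0.137–100 μM or 10 μM single dose; 37° C, 48 or 72 h; MTT 4 h; DMSO dissolve; A490; % viability vs DMSO vehicle. Activity banded by % growth inhibition at 10 μM.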

HeLa (ovarian cancer) = assay: MTT antiproliferative assay, HeLa; conditions: Homo sapiens, 48 or 72 h, read-out: inhibition of cell growth, HELA
In short: as §1

[1] = tested on: A375 (malignant melanoma); assay: MTT antiproliferative assay, A375; conditions: Homo sapiens, A-375, A375, 10 μM, 48 or 72 h, read-out: inhibition of cell growth, A375
In short: as §1

[2] = tested on: A431 (epidermoid carcinoma); assay: MTT antiproliferative assay, A431; conditions: Homo sapiens, A-431, A431, 10 μM, 48 or 72 h, read-out: inhibition of cell growth, A431
In short: as §1

SW620 (colon cancer) = assay: MTT antiproliferative assay, SW620; conditions: Homo sapiens, SW-620, SW620, 10 μM, 48 or 72 h, read-out: inhibition of cell growth, SW620
In short: as §1

[3] = tested on: A549 (lung adenocarcinoma); assay: MTT antiproliferative assay, A549; conditions: Homo sapiens, A549, 10 μM, 48 or 72 h, read-out: inhibition of cell growth, A549
In short: as §1

[4] = tested on: MDA-MB-231 (breast cancer); assay: MTT antiproliferative assay, MDA-MB-231; conditions: Homo sapiens, MDA-MB-231, 10 μM, 48 or 72 h, read-out: inhibition of cell growth, MDA-MB-231
In short: as §1

SMILES | inhibition at 10 µM (HepG2 (liver cancer)) | inhibition at 10 µM (HeLa (ovarian cancer)) | inhibition at 10 µM [1] | inhibition at 10 µM [2] | inhibition at 10 µM (SW620 (colon cancer)) | inhibition at 10 µM [3] | inhibition at 10 µM [4]
CO[C@@]1(C)C2=CC=C3[C@@](C)(CC[C@@]4(C)[C@@H]5C[C@](C)(C(=O)O)CC[C@]5(C)CC[C@]34C)C2=CC(=NO)[C@@H]1O [Compound A50, (2R,4aS,6aS,9S,10S,12bR,14aS,14bR)-10-hydroxy-11-(hydroxyimino)-9-methoxy-2,4a,6a,9,12b,14a-hexamethyl-1,2,3,4,4a,5,6,6a,9,10,11,12b,13,14,14a,14b-hexadecahydropicene-2-carboxylic acid] | < 30% | < 30% | < 30% | < 30% | < 30% | < 30% | < 30%
CO[C@@]1(C)C2=CC=C3[C@@](C)(CC[C@@]4(C)[C@@H]5C[C@](C)(C(=O)O)CC[C@]5(C)CC[C@]34C)C2=CC(=O)C1=NNC(C)=O [Compound A51, (2R,4aS,6aS,9S,12bR,14aS,14bR)-10-(acetamidoimino)-9-methoxy-2,4a,6a,9,12b,14a-hexamethyl-11-oxo-1,2,3,4,4a,5,6,6a,9,10,11,12b,13,14,14a,14b-hexadecahydropicene-2-carboxylic acid] | < 30% | < 30% | < 30% | < 30% | < 30% | < 30% | < 30%
CO[C@@]1(C)C2=CC=C3[C@@](C)(CC[C@@]4(C)[C@@H]5C[C@](C)(C(=O)O)CC[C@]5(C)CC[C@]34C)C2=CC(=O)C1=NNC(=O)c1ccncc1 [Compound A52, (2R,4aS,6aS,9S,12bR,14aS,14bR)-9-Methoxy-2,4a,6a,9,12b,14a-hexamethyl-11-oxo-10-{[(pyridin-4-yl)formamido]imino}-1,2,3,4,4a,5,6,6a,9,10,11,12b,13,14,14a,14b-hexadecahydropicene-2-carboxylic acid] | < 30% | < 30% | < 30% | < 30% | < 30% | < 30% | < 30%
CO[C@]1(C)C(=O)C2(C=C3C1=CC=C1[C@@]3(C)CC[C@@]3(C)[C@@H]4C[C@](C)(C(=O)O)CC[C@]4(C)CC[C@]13C)OCCO2 [Compound A54, (4S,6bS,8aS,11R,12aR,12bS,14aR)-4-methoxy-4,6b,8a,11,12b,14a-hexamethyl-3-oxo-4,6b,7,8,8a,9,10,11,12,12a,12b,13,14,14a-tetradecahydro-3H-spiro[picene-2,2′-[1,3]dioxolane]-11-carboxylic acid] | < 30% | < 30% | < 30% | < 30% | < 30% | < 30% | < 30%
CO[C@@]1(C)C2=CC=C3[C@@](C)(CC[C@@]4(C)[C@@H]5C[C@](C)(C(N)=O)CC[C@]5(C)CC[C@]34C)C2=CC(=O)[C@@H]1O [Compound A55, (2R,4aS,6aS,9S,10R,12bR,14aS,14bR)-10-Hydroxy-9-methoxy-2,4a,6a,9,12b,14a-hexamethyl-11-oxo-1,2,3,4,4a,5,6,6a,9,10,11,12b,13,14,14a,14b-hexadecahydropicene-2-carboxamide] | ≥ 80% | 50 to 80% | 30 to 50% | ≥ 80% | ≥ 80% | 50 to 80% | 50 to 80%
CO[C@@]1(C)C2=CC=C3[C@@](C)(CC[C@@]4(C)[C@@H]5C[C@](C)(C(=O)N6CCOCC6)CC[C@]5(C)CC[C@]34C)C2=CC(=O)[C@@H]1O [Compound A56, (3R,4S,6bS,8aS,11R,12aR,12bS,14aR)-3-hydroxy-4-methoxy-4,6b,8a,11,12b,14a-hexamethyl-11-(morpholine-4-carbonyl)-4,6b,7,8,8a,9,10,11,12,12a,12b,13,14,14a-tetradecahydropicen-2(3H)-one] | ≥ 80% | 50 to 80% | 30 to 50% | ≥ 80% | ≥ 80% | ≥ 80% | 50 to 80%
